ChEMBL document CHEMBL1166012, “New aryldithiolethione derivatives as potent histone deacetylase inhibitors” (Bioorg Med Chem, 2010)

Key:
[1] = target: Histone deacetylase; assay: Inhibition of HDAC in human HeLa cells extracts after 60 mins by fluorescence assay; type: cell-based
[2] = system: A549; assay: Antiproliferative activity against human A549 cells after 48 hrs; type: functional, cell-based; conditions: A549, 48 h

Row | SMILES | IC50 [1] [µM] | IC50 [2] [µM]
1 | O=C(CCCCCCC(=O)Oc1ccc(-c2cc(=S)ss2)cc1)NO | 10 | 56
2 | Nc1ccccc1NC(=O)CCCCCCOc1ccc(-c2cc(=S)ss2)cc1 | 32 | 31.7
3 | O=C(CCCCCCC(=O)Nc1ccccc1)NOC(=O)c1csc(=S)s1 | 0.25 | 3.4
4 | COc1cc(-c2cc(=S)ss2)ccc1OCC(=O)O | 82.85 | 880
5 | O=C(O)c1ccc(-c2cssc2=S)cc1 | 100 | 103
6 | O=C(CCCCCCC(=O)Oc1ccc(-c2cc(=S)ss2)cc1)Nc1ccccc1 | 100 | > 1000
7 | O=C(O)c1csc(=S)s1 [ACS 5] | 46.4 | > 1000
8 | O=C(CCCCCCOc1ccc(-c2cc(=S)ss2)cc1)NO | 0.01 | 6.1
9 | O=C(CCCCOc1ccc(-c2cc(=S)ss2)cc1)Nc1ccccc1 | 50 | > 1000
10 | O=C(CCCCOc1ccc(-c2cc(=S)ss2)cc1)NO | 0.08 | 5.4
11 | O=C(CCCCCCC(=O)Nc1ccccc1)NOC(=O)c1ccc(-c2cssc2=S)cc1 | 1.19 | 1.68
12 | O=C(CCCCCCOc1ccc(-c2cc(=S)ss2)cc1)Nc1ccccc1 | 918.7 | 60.2
